Patent US12252457B2, “Compositions and methods for reducing tactile dysfunction, anxiety, and social impairment” (President and Fellows of Harvard College, priority 2018, dated 2025)

Test system: Mecp2^R306C and Shank3B^+/− mice
Experiment: Chronic isoguvacine treatment from P0-P42 of Mecp2 and Shank3 germline mutant mice
Assay type: in vivo, mouse
Protocol: FIGS. 21A-21O show chronic administration of isoguvacine improves tactile over-reactivity, region-selective cortical abnormalities, and some ASD-related behaviors in Mecp2 and Shank3 mutant mice. FIG. 21A: Representative images of P21 control and Mecp2^C/y mutant mice treated daily from P0-21 with either saline or isoguvacine (2 mg/kg). FIG. 21B: Average phenotypic score of P21 Shank3B^+/− or Mecp2^C/y mutant mice and control littermates treated daily with either saline or isoguvacine (2 mg/kg). One-way ANOVA with post-hoc Tukey's test, *, p<0.05. FIG. 21C: Average bodyweight of P21 Shank3B^+/− or Mecp2^C/y mutant mice and control littermates treated daily with either saline or isoguvacine (2 mg/kg). One-way ANOVA with post-hoc Tukey's test, *, p<0.05. […] One-way ANOVA with post-hoc Tukey's test, *, p<0.05. FIG. 21E: Discrimination index for textured NORT. One-way ANOVA with post-hoc Tukey's test, *, p<0.05. FIG. 21F: Representative activity traces in the OF test. FIG. 21G: Percent time spent in the center of the OF chamber. One-way ANOVA with post-hoc Tukey's test, *, p<0.05. FIG. 21H: Percent time spent in the open arms of the EPM. One-way ANOVA with post-hoc Tukey's test, *, p<0.05. FIGS. 21I-21J: Preference index for the percentage of time spent investigating the novel mouse in the “Sociability” (FIG. 21I) or “Social Novelty Recognition Preference” (FIG. 21J) portion of the 3-chamber social interaction test. One-way ANOVA with post-hoc Tukey's test, *, p<0.05. FIG. 21K: Representative IHC images of transverse S1 brain sections, showing PV immunoreactivity in Shank3B^+/− or Mecp2^C/y mutant mice and control littermates treated daily from P1-42 with either saline or isoguvacine (2 mg/kg). FIGS. 21L-21M: Quantification of the number of PV-positive (PV^+) neurons in S1 (FIG. 21L) and V1 (FIG. 21M). One-way ANOVA with post-hoc Tukey's test, *, p<0.05. FIG. 21N: Representative traces showing ePSCS (−70 my hold) and iPSCs (0 mV hold) from S1 slices from Shank3B^+/− or Mecp2^C/y mutant mice and control littermates treated daily from P1-42 with either saline or isoguvacine (2 mg/kg). FIG. 21O: Quantification of excitatory/inhibitory (E/I) ratio in S1 or V1 slices from control and mutant mice. One-way ANOVA with post-hoc Tukey's test, *, p<0.05.
Therefore, it was tested whether chronic treatment of Mecp2 and Shank3 germline mutant mice with isoguvacine beginning shortly after birth (i.p. administration, 2 mg/kg per daily, from P0-P42) improves any of the ASD-related phenotypes commonly observed in adulthood. […] Taken together, treatment with a peripherally restricted GABAA receptor agonist during early postnatal development may provide an effective therapeutic strategy for improving tactile over-reactivity and a subset of other key features of ASD, including anxiety, without causing sedation and other undesirable effects of activating brain GABAA receptors during development.

O=C(O)C1=CCNCC1 [Isoguvacine, isoguvacine]
tactile over-reactivity, anxiety-like behaviors, social impairments, PV+ neuron abnormalities in S1 and BLA, E/I ratios in S1 (8-week-old mice, 2 mg/kg i.p. daily P0-P42): significantly improved multiple ASD-associated behavioral phenotypes | motor impairments (Mecp2 mutants, chronic 2 mg/kg): not improved | overall body appearance, or phenotypic score (P21, 2 mg/kg i.p. daily, vs saline-treated): substantial improvement | bodyweight of mutant mice (P21, Shank3B and Mecp2 mutant mice, 2 mg/kg daily): increased bodyweight and were not different in weight from control mice | overgrooming phenotype (Shank3 mutants, chronic 2 mg/kg): nor was the overgrooming phenotype rescued | textured discrimination deficits, acoustic PPI performance, memory impairments, PV+ neuron abnormalities and E/I ratios in V1 (Shank3 or Mecp2 mutants, 2 mg/kg i.p. daily P0-P42): did not improve
